According to ChEMBL document CHEMBL5653610, “The novel phosphodiesterase 10A inhibitor THPP-1 has antipsychotic-like effects in rat and improves cognition in rat and rhesus monkey” (Neuropharmacology, 2013):
Active and inactive are the calls of the source. The rule behind the calls is not given here.

Test system: Rattus norvegicus
Test: Antipsychotic activity in Wistar Hannover rat assessed as increase in recognition at 0.56 mg/kg, ip dosed 30 mins before identical objects by novel object recognition test
Format: functional, organism-based

## COc1cc2c(cc1OC)C(=O)C(CC1CCN(Cc3ccccc3)CC1)C2 (stereo unspecified)
  Activity: Active
